Here are results for 18 compounds from US12059420B2 (BRISTOL-MYERS SQUIBB COMPANY, priority 2018, dated 2024).

pIC50: −log10 of the molar value.

The test addresses T1, human IDO1 (Homo sapiens, UniProt P14902).
T1 construct: expressed in transfected cells
Kind of test: IDO inhibition assay in HEK293 cells stably expressing human IDO1 (kynurenine production, Ehrlich reagent, absorbance 490 nm). The following applies: 20 hours incubation with compound, 500 nM reference standard = 100% inhibition, read-out: IDO1 HEK Human IC50. The format is cell-based. The gist of the method:
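Kynurenine output of stably IDO1-transfected HEK293 cells was measured by absorbance at 490 nm after mixing supernatant with 0.2% Ehrlich reagent, following TCA stop (0.2% final, 50° C., 30 min). Cells were incubated 20 hours with compound. Inhibition was scaled between DMSO and 500 nM reference standard.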

T1 sequence (P14902 whole entry): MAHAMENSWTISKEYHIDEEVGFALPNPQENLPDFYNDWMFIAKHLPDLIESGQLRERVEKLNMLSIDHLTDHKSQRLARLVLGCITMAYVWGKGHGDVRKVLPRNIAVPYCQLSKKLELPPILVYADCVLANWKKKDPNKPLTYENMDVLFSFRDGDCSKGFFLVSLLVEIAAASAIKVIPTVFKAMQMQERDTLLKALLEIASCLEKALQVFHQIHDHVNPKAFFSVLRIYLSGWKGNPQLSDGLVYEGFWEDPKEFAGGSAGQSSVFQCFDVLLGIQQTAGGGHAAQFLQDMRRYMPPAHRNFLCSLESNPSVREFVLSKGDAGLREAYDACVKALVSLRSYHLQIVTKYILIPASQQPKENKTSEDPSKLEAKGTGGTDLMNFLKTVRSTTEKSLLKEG

Take `CC(C)CN(c1cc(NC(=O)Nc2ccc(F)cc2F)cc(-c2ccccc2-c2nnn[nH]2)n1)C1CCCCC1` [Example 287, 1-(2-(2-(1H-Tetrazol-5-yl)phenyl)-6-(cyclohexyl(isobutyl)amino)pyridin-4-yl)-3-(2,4-difluorophenyl)urea]: the pIC50 is 5.22.

Turning to `CCCN(Cc1ccccc1)c1cc(NC(=O)Nc2ccc3c(c2)OCO3)cc(-c2ccccc2-c2nnn[nH]2)n1` [Example 288, 1-(2-(2-(1H-Tetrazol-5-yl)phenyl)-6-(benzyl(propyl)amino)pyridin-4-yl)-3-(benzo[d][1,3]dioxol-5-yl)urea], the pIC50 was 6.81.

With `CCCN(Cc1ccccc1)c1cc(NC(=O)Nc2ccc(C(F)(F)F)cc2)cc(-c2ccccc2-c2nnn[nH]2)n1` [Example 289, 1-(2-(2-(1H-Tetrazol-5-yl)phenyl)-6-(benzyl(propyl)amino)pyridin-4-yl)-3-(4-(trifluoromethyl)phenyl)urea], the pIC50 was 7.39.

Regarding `CCCN(Cc1ccccc1)c1cc(NC(=O)Cc2ccc(C#N)cc2)cc(-c2ccccc2-c2nn[nH]n2)n1` [Example 290, N-(2-(2-(1H-Tetrazol-5-yl)phenyl)-6-(benzyl(propyl)amino)pyridin-4-yl)-2-(4-cyanophenyl)acetamide], the pIC50 is 6.32.

Take `CCCN(Cc1ccccc1)c1cc(NC(=O)Cc2ccc(C)cc2)cc(-c2ccccc2-c2nnn[nH]2)n1` [Example 291]: the pIC50 is 6.90.

Regarding `CCCN(Cc1ccccc1)c1cc(NC(=O)Cc2cccnc2)cc(-c2ccccc2-c2nn[nH]n2)n1` [Example 292], the negative logarithm of the IC50 (pIC50) was 5.47.

With `CCCN(Cc1ccccc1)c1cc(NC(=O)Cc2ccc(C)nc2)cc(-c2ccccc2-c2nnn[nH]2)n1` [Example 293], the pIC50 is 5.86.

Turning to `CCCN(Cc1ccccc1)c1cc(NC(=O)CC2CCC(C)CC2)cc(-c2ccccc2-c2nnn[nH]2)n1` (stereo not drawn) [Example 294], the pIC50 is 6.11.

As to `CCCN(Cc1ccccc1)c1cc(NC(=O)CC2CCOCC2)cc(-c2ccccc2-c2nnn[nH]2)n1` [Example 295], the pIC50 is 5.43.

Regarding `CCCN(Cc1ccccc1)c1cc(NC(=O)Cc2cc(C)no2)cc(-c2ccccc2-c2nnn[nH]2)n1` [Example 296], the pIC50 was 6.10.

In the case of `CCCN(Cc1ccccc1)c1cc(NC(=O)Nc2cc(C)on2)cc(-c2ccccc2-c2nnn[nH]2)n1` [Example 297], the pIC50 was 6.57.

As to `CCCN(Cc1ccccc1)c1cc(NC(=O)N(C)c2ccc(C(F)(F)F)cc2)cc(-c2ccccc2-c2nnn[nH]2)n1` [Example 298], the negative logarithm of the IC50 (pIC50) is 7.41.

`CCCN(Cc1ccccc1)c1cc(NC(=O)Nc2cc(C)ccn2)cc(-c2ccccc2-c2nnn[nH]2)n1` [Example 299]: the pIC50 is 6.07.

Consider `CCCN(Cc1ccccc1)c1cc(NC(=O)NC2CCCCC2)cc(-c2ccccc2-c2nnn[nH]2)n1` [Example 300], for which the pIC50 is 5.28.

Turning to `CCCN(Cc1ccccc1)c1cc(NC(=O)Nc2ccc(C)cc2)cc(-c2cc(C)ccc2-c2nnn[nH]2)n1` [Example 301, 1-(2-(Benzyl(propyl)amino)-6-(5-methyl-2-(1H-tetrazol-5-yl)phenyl)pyridin-4-yl)-3-(p-tolyl)urea], the pIC50 was 7.34.

`CCCN(Cc1ccccc1)c1cc(NC(=O)Nc2ccc(Cl)cc2Cl)cc(-c2cc(C)ccc2-c2nnn[nH]2)n1` [Example 302, 1-(2-(Benzyl(propyl)amino)-6-(5-methyl-2-(1H-tetrazol-5-yl)phenyl)pyridin-4-yl)-3-(2,4-dichlorophenyl)urea]: the pIC50 is 8.26.

Take `CCCN(Cc1ccccc1)c1cc(NC(=O)Cc2ccc(C)cc2)cc(-c2cc(C)ccc2-c2nnn[nH]2)n1` [Example 303, N-(2-(Benzyl(propyl)amino)-6-(5-methyl-2-(1H-tetrazol-5-yl)phenyl)pyridin-4-yl)-2-(p-tolyl)acetamide]: the pIC50 was 6.99.

Turning to `CCCN(Cc1ccccc1)c1cc(NC(=O)C2CCCCC2)cc(-c2cc(C)ccc2-c2nnn[nH]2)n1` [Example 304, N-(2-(Benzyl(propyl)amino)-6-(5-methyl-2-(1H-tetrazol-5-yl)phenyl)pyridin-4-yl)cyclohexanecarboxamide], the negative-log IC50 (pIC50) was 5.88.

The pIC50 is the negative decadic logarithm of the IC50, by convention in mol/L.
